Source: ChEMBL document CHEMBL5465560, “Selectivity Literature for EUbOPEN Chemogenomic Library” (2024)

What was measured:
[1] = target: T1, Dual specificity protein kinase TTK (Homo sapiens) (UniProt P33981); experiment: Selectivity interaction (KinomeScan (DiscoverX)) EUB0001049a TTK; details: at 1 µM
T1 sequence (whole entry): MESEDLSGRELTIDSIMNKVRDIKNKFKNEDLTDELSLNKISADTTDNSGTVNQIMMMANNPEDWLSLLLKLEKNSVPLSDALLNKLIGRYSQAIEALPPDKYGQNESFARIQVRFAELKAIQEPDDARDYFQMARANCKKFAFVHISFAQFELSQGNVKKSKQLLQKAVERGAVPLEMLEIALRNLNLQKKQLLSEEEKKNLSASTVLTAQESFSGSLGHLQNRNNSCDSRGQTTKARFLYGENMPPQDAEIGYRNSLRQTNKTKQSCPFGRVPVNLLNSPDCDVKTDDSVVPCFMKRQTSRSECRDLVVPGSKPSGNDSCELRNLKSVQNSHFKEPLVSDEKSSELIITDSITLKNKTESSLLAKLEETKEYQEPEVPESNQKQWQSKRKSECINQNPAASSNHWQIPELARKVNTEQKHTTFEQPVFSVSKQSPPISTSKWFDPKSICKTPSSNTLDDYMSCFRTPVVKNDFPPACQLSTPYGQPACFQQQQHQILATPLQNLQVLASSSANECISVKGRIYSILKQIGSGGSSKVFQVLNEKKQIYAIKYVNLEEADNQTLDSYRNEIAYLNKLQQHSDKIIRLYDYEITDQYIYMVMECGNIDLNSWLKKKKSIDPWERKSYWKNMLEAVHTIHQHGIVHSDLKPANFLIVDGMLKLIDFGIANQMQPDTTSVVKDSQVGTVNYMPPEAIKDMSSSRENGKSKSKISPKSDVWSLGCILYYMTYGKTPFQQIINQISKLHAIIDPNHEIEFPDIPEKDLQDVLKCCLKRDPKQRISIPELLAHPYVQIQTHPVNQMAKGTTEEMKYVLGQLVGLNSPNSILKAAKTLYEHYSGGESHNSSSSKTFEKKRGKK

[2] = target: T2, Tyrosine-protein kinase receptor TYRO3 (Homo sapiens) (UniProt Q06418); experiment: Selectivity interaction (KinomeScan (DiscoverX)) EUB0001049a TYRO3; details: at 1 µM
T2 sequence (whole entry): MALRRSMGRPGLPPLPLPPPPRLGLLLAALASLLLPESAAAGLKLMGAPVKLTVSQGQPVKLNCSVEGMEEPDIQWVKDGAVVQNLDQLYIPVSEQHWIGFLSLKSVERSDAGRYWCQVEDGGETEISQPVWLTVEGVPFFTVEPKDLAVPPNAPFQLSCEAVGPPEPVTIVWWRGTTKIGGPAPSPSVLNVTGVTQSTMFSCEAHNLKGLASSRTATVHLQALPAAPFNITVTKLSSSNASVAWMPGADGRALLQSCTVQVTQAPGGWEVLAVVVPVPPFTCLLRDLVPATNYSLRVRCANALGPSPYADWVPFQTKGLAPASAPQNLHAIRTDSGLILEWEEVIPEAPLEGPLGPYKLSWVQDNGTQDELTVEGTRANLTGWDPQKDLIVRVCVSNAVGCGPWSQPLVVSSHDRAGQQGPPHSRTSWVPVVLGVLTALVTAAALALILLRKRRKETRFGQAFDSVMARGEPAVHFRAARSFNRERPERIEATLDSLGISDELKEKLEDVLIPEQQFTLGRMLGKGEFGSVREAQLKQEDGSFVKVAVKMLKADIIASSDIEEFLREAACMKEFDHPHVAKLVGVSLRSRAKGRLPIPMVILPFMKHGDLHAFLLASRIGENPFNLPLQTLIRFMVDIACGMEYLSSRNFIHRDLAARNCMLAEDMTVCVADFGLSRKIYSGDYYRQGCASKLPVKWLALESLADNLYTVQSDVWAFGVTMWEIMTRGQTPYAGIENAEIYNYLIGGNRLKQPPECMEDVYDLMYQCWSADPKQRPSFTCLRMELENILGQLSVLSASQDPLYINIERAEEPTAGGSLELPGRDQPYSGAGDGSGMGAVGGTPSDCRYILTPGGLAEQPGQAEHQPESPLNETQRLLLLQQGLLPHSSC

[3] = target: Serine/threonine-protein kinase 33 (Homo sapiens) (UniProt Q9BYT3); experiment: Selectivity interaction (KinomeScan (DiscoverX)) EUB0000229b STK33; details: at 10 µM
Serine/threonine-protein kinase 33 (Homo sapiens), sequence (Q9BYT3 whole entry, looked up): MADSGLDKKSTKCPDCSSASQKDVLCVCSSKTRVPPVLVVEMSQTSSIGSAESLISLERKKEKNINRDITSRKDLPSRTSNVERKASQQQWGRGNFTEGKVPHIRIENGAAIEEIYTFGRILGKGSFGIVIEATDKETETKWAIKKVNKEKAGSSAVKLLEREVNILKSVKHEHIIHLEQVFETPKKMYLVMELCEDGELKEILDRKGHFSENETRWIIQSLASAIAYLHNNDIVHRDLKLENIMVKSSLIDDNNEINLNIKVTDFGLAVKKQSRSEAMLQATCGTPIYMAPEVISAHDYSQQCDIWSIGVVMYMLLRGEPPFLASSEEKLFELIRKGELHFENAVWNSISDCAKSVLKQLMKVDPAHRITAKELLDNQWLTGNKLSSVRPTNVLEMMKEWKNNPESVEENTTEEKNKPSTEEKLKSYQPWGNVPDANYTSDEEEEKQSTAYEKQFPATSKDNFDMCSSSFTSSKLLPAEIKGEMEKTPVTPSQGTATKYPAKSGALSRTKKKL

[4] = target: T3, Protein kinase C iota type (Homo sapiens) (UniProt P41743); experiment: Selectivity interaction (KinomeScan (DiscoverX)) EUB0001619a PRKCI; details: at 1 µM
T3 sequence (whole entry): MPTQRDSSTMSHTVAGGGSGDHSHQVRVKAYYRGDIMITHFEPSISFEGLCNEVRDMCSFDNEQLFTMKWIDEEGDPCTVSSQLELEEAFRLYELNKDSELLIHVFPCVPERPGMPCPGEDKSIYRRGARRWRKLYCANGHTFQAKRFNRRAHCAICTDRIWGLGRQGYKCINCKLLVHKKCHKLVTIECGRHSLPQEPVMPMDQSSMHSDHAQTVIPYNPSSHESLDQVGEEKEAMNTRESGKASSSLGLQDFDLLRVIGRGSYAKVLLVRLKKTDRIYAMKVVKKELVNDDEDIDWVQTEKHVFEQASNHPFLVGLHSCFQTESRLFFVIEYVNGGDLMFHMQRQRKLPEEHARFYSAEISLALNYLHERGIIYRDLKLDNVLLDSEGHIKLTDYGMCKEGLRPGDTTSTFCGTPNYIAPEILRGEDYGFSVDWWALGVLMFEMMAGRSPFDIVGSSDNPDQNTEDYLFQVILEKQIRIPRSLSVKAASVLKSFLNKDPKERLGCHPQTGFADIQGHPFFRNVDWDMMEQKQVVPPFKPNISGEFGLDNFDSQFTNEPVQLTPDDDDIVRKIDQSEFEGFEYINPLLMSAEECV

COc1cc(Nc2nc(C)cc(-c3cnn4nc(OC)ccc34)n2)cc(C(F)(F)F)c1
% of control [1]: 90% | % of control [2]: 76%

COc1cc(N(C)c2ccnc3ccc(C(F)(F)F)cc23)cc(OC)c1OC
% binding [3]: 92%

N#Cc1cccc(-c2c[nH]c3ncnc(N4CCOCC4)c23)c1
% of control [4]: 100%
